Data from patent US20090099029A1, “Methods and substrates for conducting assays” (Invitrogen Corporation, priority 2005, published 2009).
Read-outs that look alike come from different tables or passages of the source.

Columns and labels:
[1] = target: T1, kinases of Table 5 (Homo sapiens, UniProt O14965); test: Further analysis of a plurality of inhibitors and a plurality of kinases (Table 5 inhibition results); assay type: biochemical; design: scale not given here; details: kinase STK6 (Part I, plate C6, Domain 1)
T1 sequence (O14965 1-403): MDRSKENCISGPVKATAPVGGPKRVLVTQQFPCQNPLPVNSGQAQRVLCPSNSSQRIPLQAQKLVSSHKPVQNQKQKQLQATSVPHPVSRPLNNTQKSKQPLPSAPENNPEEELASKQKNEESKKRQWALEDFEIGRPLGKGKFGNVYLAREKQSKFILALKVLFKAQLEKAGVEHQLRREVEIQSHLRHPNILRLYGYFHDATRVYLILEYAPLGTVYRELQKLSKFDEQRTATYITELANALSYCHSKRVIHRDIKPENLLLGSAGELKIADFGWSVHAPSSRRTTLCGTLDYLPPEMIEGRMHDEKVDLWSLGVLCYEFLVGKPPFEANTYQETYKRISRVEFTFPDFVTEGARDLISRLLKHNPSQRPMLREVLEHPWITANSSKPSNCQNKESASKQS
From the text: (§1) The wash solution is then discarded.

[2] = target: T2, kinases of Table 5 (Homo sapiens, UniProt O43318); test: as above; assay type: biochemical; design: scale not given here; details: kinase MAP3K7 (Part I, plate G9, Domain 0)
T2 sequence (O43318 1-606): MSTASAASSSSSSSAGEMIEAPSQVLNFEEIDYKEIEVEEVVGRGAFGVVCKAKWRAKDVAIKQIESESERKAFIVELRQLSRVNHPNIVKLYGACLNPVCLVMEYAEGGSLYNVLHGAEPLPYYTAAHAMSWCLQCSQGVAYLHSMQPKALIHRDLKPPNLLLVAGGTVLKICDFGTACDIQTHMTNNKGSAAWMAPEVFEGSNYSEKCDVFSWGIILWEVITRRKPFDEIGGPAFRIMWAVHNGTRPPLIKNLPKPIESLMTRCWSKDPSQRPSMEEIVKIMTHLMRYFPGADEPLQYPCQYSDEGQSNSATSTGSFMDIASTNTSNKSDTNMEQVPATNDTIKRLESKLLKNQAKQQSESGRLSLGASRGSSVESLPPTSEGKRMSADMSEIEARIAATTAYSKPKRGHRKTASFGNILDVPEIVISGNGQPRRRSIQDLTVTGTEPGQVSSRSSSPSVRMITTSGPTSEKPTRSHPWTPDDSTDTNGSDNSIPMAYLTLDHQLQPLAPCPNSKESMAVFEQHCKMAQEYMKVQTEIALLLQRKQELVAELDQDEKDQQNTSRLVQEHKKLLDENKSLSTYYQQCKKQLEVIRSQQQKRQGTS
From the text: as §1

[3] = target: kinases of Table 5 (Homo sapiens, UniProt P24723); test: as above; assay type: biochemical; design: scale not given here; details: for Inhibition level: kinase PRKCH; for Inhibition Results (Level): kinase PRKCH (Part II, plate B3, Domain 0)
From the text: as §1

[4] = target: kinases of Table 5 (Homo sapiens, UniProt P68400); test: as above; assay type: biochemical; design: scale not given here; details: for Inhibition Results (Level): kinase CSNK2A1 (Part II, plate D9, Domain 0)
From the text: as §1

[5] = target: T3, kinases of Table 5 (Homo sapiens, UniProt Q08881); test: as above; assay type: biochemical; design: scale not given here; details: kinase ITK (Part I, plate E4, Domain 0); inhibitor 100 uM
T3 sequence (Q08881 1-620): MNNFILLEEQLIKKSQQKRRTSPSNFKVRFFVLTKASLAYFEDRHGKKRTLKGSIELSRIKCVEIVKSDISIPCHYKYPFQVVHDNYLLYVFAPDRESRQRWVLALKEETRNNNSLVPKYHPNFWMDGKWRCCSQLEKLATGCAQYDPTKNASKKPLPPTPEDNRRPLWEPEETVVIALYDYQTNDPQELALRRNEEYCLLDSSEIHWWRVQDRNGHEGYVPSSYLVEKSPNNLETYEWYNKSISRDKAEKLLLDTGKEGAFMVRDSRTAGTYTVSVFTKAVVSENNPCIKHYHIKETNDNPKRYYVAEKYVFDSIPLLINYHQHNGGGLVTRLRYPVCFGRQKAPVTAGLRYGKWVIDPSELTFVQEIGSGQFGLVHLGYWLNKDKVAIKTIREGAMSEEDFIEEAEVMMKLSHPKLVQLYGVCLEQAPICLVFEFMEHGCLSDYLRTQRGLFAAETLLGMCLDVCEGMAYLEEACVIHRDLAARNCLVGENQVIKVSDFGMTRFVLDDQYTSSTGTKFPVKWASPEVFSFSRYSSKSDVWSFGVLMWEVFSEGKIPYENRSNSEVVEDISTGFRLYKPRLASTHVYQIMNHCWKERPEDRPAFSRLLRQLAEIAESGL
From the text: as §1

[6] = target: T4, kinases of Table 5 (Homo sapiens, UniProt Q13043); test: as above; assay type: biochemical; design: scale not given here; details: for Inhibition level: kinase STK4; for Inhibition Results (Level): kinase STK4 (Part II, plate D6, Domain 1)
T4 sequence (Q13043 1-487): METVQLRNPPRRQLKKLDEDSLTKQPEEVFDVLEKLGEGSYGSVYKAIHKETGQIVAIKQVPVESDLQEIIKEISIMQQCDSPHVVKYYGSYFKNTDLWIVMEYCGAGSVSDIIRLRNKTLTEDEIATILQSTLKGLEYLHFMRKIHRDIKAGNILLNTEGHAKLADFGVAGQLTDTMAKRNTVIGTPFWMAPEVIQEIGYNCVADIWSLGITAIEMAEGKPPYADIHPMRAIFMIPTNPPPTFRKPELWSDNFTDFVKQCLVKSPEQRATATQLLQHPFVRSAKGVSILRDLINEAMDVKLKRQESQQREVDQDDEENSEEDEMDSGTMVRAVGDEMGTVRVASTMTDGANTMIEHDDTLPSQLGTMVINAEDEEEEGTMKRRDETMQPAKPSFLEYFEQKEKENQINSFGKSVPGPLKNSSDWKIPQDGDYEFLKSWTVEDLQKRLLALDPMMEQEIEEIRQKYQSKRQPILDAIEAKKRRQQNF
From the text: as §1

[7] = target: kinases of Table 5 (Homo sapiens, UniProt Q7KZI7); test: as above; assay type: biochemical; design: scale not given here; details: kinase MARK2 (Part I, plate C4, Domain 1); inhibitor 100 uM
From the text: as §1

[8] = target: kinases of Table 5 (Homo sapiens, UniProt Q9UIK4); test: as above; assay type: biochemical; design: scale not given here; details: for Inhibition level: kinase DAPK2; for Inhibition Results (Level): kinase DAPK2 (Part II, plate H3, Domain 1)
From the text: as §1

[9] = system: 39 kinases (Table 4); details: known general specificities of the inhibitors; cited from earlier work
[10] = kinase CSNK2A1, inhibitor 100 uM
[11] = kinase CSNK2A1, concentration not given

Sequence of kinases of Table 5 (Homo sapiens, UniProt P24723) (P24723 whole entry): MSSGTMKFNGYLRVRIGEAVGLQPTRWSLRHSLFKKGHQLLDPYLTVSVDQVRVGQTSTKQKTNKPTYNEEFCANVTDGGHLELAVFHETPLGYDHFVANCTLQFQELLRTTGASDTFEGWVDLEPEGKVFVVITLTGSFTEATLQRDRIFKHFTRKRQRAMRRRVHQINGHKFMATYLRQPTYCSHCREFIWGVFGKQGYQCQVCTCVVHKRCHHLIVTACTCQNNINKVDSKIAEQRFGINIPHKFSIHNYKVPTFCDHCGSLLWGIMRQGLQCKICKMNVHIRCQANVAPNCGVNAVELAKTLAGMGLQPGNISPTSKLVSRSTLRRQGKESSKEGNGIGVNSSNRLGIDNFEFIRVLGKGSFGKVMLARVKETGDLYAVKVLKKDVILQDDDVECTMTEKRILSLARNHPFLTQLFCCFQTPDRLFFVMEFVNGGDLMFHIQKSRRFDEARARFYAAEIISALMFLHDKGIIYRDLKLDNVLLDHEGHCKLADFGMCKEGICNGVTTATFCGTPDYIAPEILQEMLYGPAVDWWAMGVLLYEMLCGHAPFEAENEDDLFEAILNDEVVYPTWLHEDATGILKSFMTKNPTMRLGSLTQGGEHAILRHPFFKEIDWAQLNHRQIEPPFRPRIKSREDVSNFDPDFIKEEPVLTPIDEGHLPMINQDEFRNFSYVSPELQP
Sequence of kinases of Table 5 (Homo sapiens, UniProt Q9UIK4) (Q9UIK4 whole entry): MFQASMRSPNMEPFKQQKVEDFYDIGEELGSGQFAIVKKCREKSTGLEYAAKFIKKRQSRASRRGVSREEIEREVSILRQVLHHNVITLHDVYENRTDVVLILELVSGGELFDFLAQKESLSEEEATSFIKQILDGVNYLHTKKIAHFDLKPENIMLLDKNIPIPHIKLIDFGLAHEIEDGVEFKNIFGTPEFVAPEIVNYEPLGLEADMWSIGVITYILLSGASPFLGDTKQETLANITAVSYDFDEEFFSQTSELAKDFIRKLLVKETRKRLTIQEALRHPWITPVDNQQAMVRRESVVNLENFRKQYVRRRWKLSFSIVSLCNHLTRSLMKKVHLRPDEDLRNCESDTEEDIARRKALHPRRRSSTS
Sequence of kinases of Table 5 (Homo sapiens, UniProt Q7KZI7) (Q7KZI7 whole entry): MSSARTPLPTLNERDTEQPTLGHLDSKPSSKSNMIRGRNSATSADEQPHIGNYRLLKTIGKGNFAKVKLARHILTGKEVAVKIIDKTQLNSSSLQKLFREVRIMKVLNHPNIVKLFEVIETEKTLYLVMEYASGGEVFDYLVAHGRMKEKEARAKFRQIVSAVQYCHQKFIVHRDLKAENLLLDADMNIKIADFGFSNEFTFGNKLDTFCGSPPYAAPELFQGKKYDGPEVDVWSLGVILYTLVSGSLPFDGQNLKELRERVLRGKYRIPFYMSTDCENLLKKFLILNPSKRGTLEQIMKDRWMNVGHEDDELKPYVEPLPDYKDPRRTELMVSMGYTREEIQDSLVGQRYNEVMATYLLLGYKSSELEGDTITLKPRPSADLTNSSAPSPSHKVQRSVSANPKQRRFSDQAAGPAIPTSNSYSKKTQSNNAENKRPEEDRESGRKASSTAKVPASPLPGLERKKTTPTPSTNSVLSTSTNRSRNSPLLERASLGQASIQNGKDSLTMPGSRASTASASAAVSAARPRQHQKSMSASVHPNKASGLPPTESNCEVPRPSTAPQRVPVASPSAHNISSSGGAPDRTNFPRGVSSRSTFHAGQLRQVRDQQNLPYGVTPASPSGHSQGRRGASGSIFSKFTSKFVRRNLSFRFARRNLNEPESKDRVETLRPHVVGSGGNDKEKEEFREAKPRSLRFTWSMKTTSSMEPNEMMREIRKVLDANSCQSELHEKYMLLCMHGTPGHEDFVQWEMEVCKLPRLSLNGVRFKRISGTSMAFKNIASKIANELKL
Sequence of kinases of Table 5 (Homo sapiens, UniProt P68400) (P68400 whole entry): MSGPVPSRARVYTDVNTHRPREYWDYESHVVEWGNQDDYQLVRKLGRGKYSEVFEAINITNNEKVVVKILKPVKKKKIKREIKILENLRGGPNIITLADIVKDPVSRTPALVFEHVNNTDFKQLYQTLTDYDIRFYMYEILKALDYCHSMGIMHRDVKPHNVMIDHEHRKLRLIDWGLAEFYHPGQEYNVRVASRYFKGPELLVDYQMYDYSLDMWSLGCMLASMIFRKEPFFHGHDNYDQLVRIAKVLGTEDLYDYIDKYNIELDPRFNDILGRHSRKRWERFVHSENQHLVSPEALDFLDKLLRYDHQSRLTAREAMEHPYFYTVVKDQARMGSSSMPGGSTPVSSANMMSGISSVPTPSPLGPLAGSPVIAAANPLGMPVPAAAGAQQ

Row | Structure (SMILES) | Inhibition Results (Level) ([1]; inhibitor 100 uM) | Inhibition Results (Level) ([2]; inhibitor 100 uM) | Inhibition level ([3]; inhibitor 100 uM) | Inhibition level [4, 10] | Inhibition Results (Level) [5] | Inhibition level ([6]; inhibitor 100 uM) | Inhibition Results (Level) [7] | Inhibition level ([8]; inhibitor 100 uM) | General Specificity [9] | Inhibition level ([6]; concentration not given) | Inhibition level ([8]; concentration not given) | Inhibition Results (Level) ([3]; inhibitor 100 uM) | Inhibition Results (Level) ([6]; inhibitor 100 uM) | Inhibition Results (Level) ([8]; inhibitor 100 uM) | further results
1 | N#C/C(=C/c1ccc(O)c(O)c1)C(=O)NCc1ccccc1 [AG 490] | 2 | 0 | 2 | 2 | 1 | 0 | 2 | 2 | Tyrosine |  |  |  |  |  | 
2 | COc1cc2ncnc(Nc3cccc(Cl)c3)c2cc1OC [AG 1478] | 0 | 0 | 0 | 2 | 1 | 1 | 2 | 0 |  |  |  |  |  |  | 
3 | O=c1c(-c2ccc(O)cc2)coc2cc(O)cc(O)c12 [Genistein] | 2 | 1 | 2 | 2 | 2 | 0 | 2 | 2 | Tyrosine | 0 | 0 |  |  |  | Inhibition Results (Level) ([1]; inhibitor <3.7 mM): 0; Inhibition Results (Level) ([2]; inhibitor <3.7 mM): 0; Inhibition level ([3]; concentration not given): 0; Inhibition level [4, 11]: 0
4 | O=S(=O)(NCCNC/C=C/c1ccc(Br)cc1)c1cccc2cnccc12 [H-89] | 0 | 2 |  |  | 1 |  | 2 |  | Serine/threonine |  |  | 2 | 2 | 2 | Inhibition Results (Level) ([4]; inhibitor 100 uM): 0
5 | CC(C)(C)n1nc(-c2ccc(Cl)cc2)c2c(N)ncnc21 [PP2] | 2 | 2 | 2 | 2 | 2 | 2 | 2 | 2 | Tyrosine |  |  |  |  |  | 
6 | O=c1c(O)c(-c2ccc(O)c(O)c2)oc2cc(O)cc(O)c12 [Quercetin] |  |  |  |  | 0 |  |  |  |  |  |  | 0 | 0 | 0 | 
7 | Cn1cc(C2=C(c3cn(CCCSC(=N)N)c4ccccc34)C(=O)NC2=O)c2ccccc21 [Ro-31-8220] | 2 | 2 | 2 | 2 | 2 | 2 | 2 | 2 | Serine/threonine | 0 | 2 |  |  |  | Inhibition Results (Level) ([1]; inhibitor 90 uM): 0; Inhibition Results (Level) ([2]; inhibitor 90 uM): 2; Inhibition level ([3]; concentration not given): 2; Inhibition level [4, 11]: 0
8 | CC(=O)c1c(O)c(C)c(O)c(Cc2c(O)c3c(c(C(=O)/C=C/c4ccccc4)c2O)OC(C)(C)C=C3)c1O [Rottlerin (Mallotoxin)] | 2 | 2 |  |  | 1 |  | 2 |  |  |  |  | 2 | 0 | 1 | Inhibition Results (Level) ([4]; inhibitor 100 uM): 2
9 | CN[C@@H]1C[C@H]2O[C@@](C)([C@@H]1OC)n1c3ccccc3c3c4c(c5c6ccccc6n2c5c31)C(=O)NC4 [Staurosporine] |  |  |  |  |  |  |  |  | Broad | 0 | 2 |  |  |  | Inhibition Results (Level) ([1]; inhibitor 21.5 uM): 0; Inhibition level [4]: 2
